# According to patent US12570612B2, “Substituted nitrogen heterocyclic compound and anesthetic effect thereof” (priority 2019, dated 2026):
# How the values were obtained:
# Sprague-Dawley rats [1] = test: animal or person; format: in vivo; conditions: rats
# From the text: Evaluating indicator: The end point of anesthesia: the disappearance of forepaw righting reflex (lorr) was used as the end point of anesthesia; General anesthesia effect: the disappearance of forepaw righting reflex in rats lasting for 30 seconds is taken as the index of general anesthesia effect; Anesthesia recovery index: the recovery of rat forepaw righting reflex was used as the index of anesthesia recovery.
# Sprague-Dawley rats [2] = test: Pharmacological effect and adverse reactions under the equivalent dose (2ED50), Group D compounds; format: in vivo
# From the text: Evaluation index: onset time: from the completion of drug injection to the disappearance of forepaw righting reflex in rats; Duration of anesthesia: the time from the disappearance of rat forepaw righting reflex to the recovery of rat forepaw righting reflex; Recovery time of anesthesia: the time from the […] to complete recovery;
# adrenal cortex function = test: Adrenocortical function in rats: corticosterone after dexamethasone and ACTH, Group D compounds; conditions: for Baseline(S1) corticosterone concentration: before drug
# Procedure: Instruments and Equipment: multi-function ion meter (METTLER TOLEDO, models: SevenMulti), pipetting gun (Eppendorf, specifications: 1000 ul, 200 ul, 100 ul, 10 ul), electronic balance (model: ME215S, manufacturers: Sartorius, Germany), the timer. Experimental Method: Adult male Sprague-Dawley rats (250-300 g) were selected for the experiment (n=8), all the experiment were started in the morning. Place indwelling needles in tail vein of rats and inject dexamethasone (0.5 mg/kg). The first time of blood collection (S1) is in two hours later, and give dexamethasone (0.2 mg/kg). […] All the drugs were administered in a volume of 0.6 ml and at a rate of 0.1 ml/s. 15 min later, exogenous ACTH (25 ug/kg) was injected. Another blood sample was collected after 30 min (S2). The blood samples were left standing at room temperature for 30-60 min, followed by centrifugation at 3500 rpm for 10 min. The supernatant was taken and centrifuged again at 15000 rpm for 5 min before being frozen and stored in a −20° C. refrigerator.
# Evaluation indexes: The concentration of the corticosterone in the supernatant of rats before and after given drugs.
# SD rats = system: SD rats
# Procedure: Experimental Methods: Adult male SD rats with body weight ranging from 250 g to 350 g were selected for continuous infusion test.
# Evaluation indexes: the time from the beginning of continuous infusion to the […] of sedation in rats; the time from the cessation of infusion to the restoration of the forepaw turning reflex after 1 hour of continuous infusion; the time from the cessation of infusion to the complete restoration of rats after 1 hour of continuous infusion.
# Sprague-Dawley rats [3] = format: in vivo; conditions: tail vein
# [4] = equivalent dose (2 × ED50), number of rats of n = 8
# [5] = after 1 hour continuous infusion at 2 times the MIR, SD rats
# [6] = continuous infusion 2 x MIR 1 hour, rats affected/rats
compound,measurement,setting,value
CCOC(OCC)(OCC)C(=O)c1cncn1[C@H](C)c1ccccc1 [Compound D76],ED50,"Sprague-Dawley rats [1]; LORR, up and down method, tail vein, class symbols","++ (++ indicates that the measured ED50 is in the range of 0.50-1.00 mg/kg (excluding 0.50 mg/kg, including 1.00 mg/kg))"
same,Approximate therapeutic index,Sprague-Dawley rats [1],>31.8
same,Righting reflex duration,"Sprague-Dawley rats [2]; 2ED50, tail vein, rats, n=8",1.67 ± 1.32 min
same,Sedation duration,"Sprague-Dawley rats [2]; 2ED50, tail vein, rats, n=8",6.44 ± 1.82 min
same,Onset time,"Sprague-Dawley rats [2]; 2ED50, tail vein, rats, n=8, unit min",<1 min
same,Adverse reaction: Convulsions,Sprague-Dawley rats [2]; [4],0
same,"Adverse reaction: Cough, broken-winded",Sprague-Dawley rats [2]; [4],0
same,Adverse reaction: Euphoria,Sprague-Dawley rats [2]; [4],0
same,Adverse reaction: Four limbs rigidity,Sprague-Dawley rats [2]; [4],2
same,Adverse reaction: Red urine,Sprague-Dawley rats [2]; [4],8
same,"Adverse reaction: Slower breathing, Tetany convulsion",Sprague-Dawley rats [2]; [4],0
same,"Adverse reaction: Systemic stiffness, Convulsions, Opisthotonus",Sprague-Dawley rats [2]; [4],8
same,Adverse reaction: Tongue stretching,Sprague-Dawley rats [2]; [4],0
same,Adverse reaction: Tremor,Sprague-Dawley rats [2]; [4],0
same,Baseline(S1) corticosterone concentration,adrenal cortex function; Table 17 printed a second time,153.23 ± 30.91
same,Give ACTH 30min later(S2) corticosterone concentration,"adrenal cortex function; drug at 2ED50, 30 min after ACTH 25 ug/kg",277.88 ± 34.56
same,Give ACTH 30min later(S2) corticosterone concentration,"adrenal cortex function; drug at 2ED50, 30 min after ACTH, Table 17 printed a second time",277.88 ± 34.56
same,Baseline(S1) corticosterone concentration,adrenal cortex function; two hours after dexamethasone 0.5 mg/kg,153.23 ± 30.91
same,After the infusion is stopped: Righting reflex recovery time,SD rats; [5],15 to 25 min
same,Recovery time after stopping infusion,SD rats; [5],25 to 40 min
same,Types and incidence of adverse reactions: Hindlimb rigidity,SD rats; [6],rigidity(2/6)
same,Types and incidence of adverse reactions: Red urine,SD rats; [6],"Red urine(6/6), Hindlimb"
same,Sedation onset time,"SD rats; continuous tail vein infusion at 2 times the MIR, SD rats",<5 min
same,Minimal lethal dose,Sprague-Dawley rats [3],>11.5 mg/kg
